pEC50: −log10 of the molar value.
Target: T1, human β3-AR (Homo sapiens, UniProt P13945)
T1 construct: expressed in transfected cells; host or cells: CHO (Chinese hamster ovary) cells, stably transfected
Assay: cAMP functional agonist assay (LANCE TR-FRET) in CHO cells expressing cloned human β3-AR
Type: cell-based
Details: for pEC50: CHO cells stably expressing cloned human β3-adrenoceptor, cAMP release, read-out: Human β3-AR Agonism EC50; for Fold drop in potency vs. 2-chloropyridine analog: EC50 of comparative example divided by EC50 of corresponding 2-chloropyridine compound; for Human β3-AR Agonist Activity (%): percent maximum activation relative to isoproterenol
Protocol: The ability of compounds to activate the human β3-AR receptor was measured using a CHO cell line stably expressing the cloned human β1-, β2-, and β3-adrenoceptors (β-AR). […] To quantify the amount of cAMP released following β-AR activation, the LANCE cAMP kit (Perking Elmer), a time-resolved fluorescence resonance energy transfer immunoassay, was used. Compounds were serially diluted in DMSO and an aliquot added to either 384-well or 96-well micro titer plates in assay buffer (5 mM HEPES, 0.1% BSA in Hank's Balanced Salt Solution). […] Following 30 min incubation at room temperature, the cells were lysed by the addition of LANCE detection buffer which contained a europium-labeled cAMP tracer. Fluorescence was measured following one hour incubation at room temperature using a Perking Elmer Envision plate reader, exciting at 340 nm and measuring emission at 615 nm and 665 nm. For each assay, a cAMP standard curve was included and used to convert fluorescence readings directly to cAMP amounts. The values were then normalized to isoproterenol, a known full agonist of β-AR, which was titrated in every assay and the EC50 determined using a custom in-house data analysis package. Along with EC50, the percent maximum activation relative to isoproterenol is reported.
The cAMP production is measured using a homogenous time-resolved fluorescence resonance energy transfer immunoassay (LANCE™, Perkin Elmer) according to the manufacture's instructions. Chinese hamster ovary (CHO) cells, stably transfected with the cloned β-adrenergic receptor (β1, β2 or β3) are harvested after 3 days of subculturing. Harvesting of cells is done with Enzyme-free Dissociation Media (Specialty Media). Cells are then counted and resuspended in assay buffer (Hank's Balanced salt solution supplemented with 5 mM HEPES, […]) containing a phosphodiesterase inhibitor (IBMX, 0.6 mM). The reaction is initiated by mixing 6,000 cells in 6 μL with 6 μL Alexa Fluor labeled cAMP antibody (LANCE™ kit) which is then added to an assay well containing 12 μL of compound (diluted in assay buffer to 2× final concentration). The reaction proceeds for 30 minutes at RT and is terminated by the addition of 24 ul detection buffer (LANCE™ kit). The assay plate is then incubated for 1 h at RT and time-resolved fluorescence measured on a Perkin Elmer Envision reader or equivalent. The unknown cAMP level is determined by comparing fluorescence levels to a cAMP standard curve.
The non-selective, full agonist β-adrenergic ligand isoproterenol is used at all three receptors to determine maximal stimulation. […] Data are analyzed using Microsoft Excel and Graphpad Prism or an internally developed data analysis software package. […]

T1 sequence (P13945 whole entry): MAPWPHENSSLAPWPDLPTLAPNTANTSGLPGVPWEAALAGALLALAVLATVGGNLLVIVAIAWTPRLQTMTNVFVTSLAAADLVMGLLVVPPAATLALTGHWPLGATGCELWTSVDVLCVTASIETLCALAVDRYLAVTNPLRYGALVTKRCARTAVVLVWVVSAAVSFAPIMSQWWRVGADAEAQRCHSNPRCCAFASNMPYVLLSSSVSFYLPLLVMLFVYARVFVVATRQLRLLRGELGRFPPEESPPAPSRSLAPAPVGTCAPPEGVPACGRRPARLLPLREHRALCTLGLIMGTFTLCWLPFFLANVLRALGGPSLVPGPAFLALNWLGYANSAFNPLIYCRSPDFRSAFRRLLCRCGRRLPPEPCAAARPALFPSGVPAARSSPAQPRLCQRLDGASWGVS

Row | SMILES | pEC50 | Fold drop in potency vs. 2-chloropyridine analog [fold] | Human β3-AR Agonist Activity (%)
1 | CN(Cc1nc2ccccc2c(=O)n1C)C(=O)c1ccc(C[C@@H]2CC[C@H]([C@H](O)c3ccc(Cl)nc3)N2)cc1 [Example 45-A, 4-(((2S,5R)-5-((R)-(6-chloropyridin-3-yl)(hydroxy)methyl)pyrrolidin-2-yl)methyl)-N-methyl-N-((3-methyl-4-oxo-3,4-dihydroquinazolin-2-yl)methyl)benzamide] | 7.60 |  | 90
2 | CC(C)[C@H](c1nn(C)c(=O)o1)N(C)C(=O)c1ccc(C[C@@H]2CC[C@H]([C@H](O)c3ccccc3)N2)cc1 [Example 19-B, 4-(((2S,5R)-5-((R)-hydroxy(phenyl)methyl)pyrrolidin-2-yl)methyl)-N-methyl-N—((R)-2-methyl-1-(4-methyl-5-oxo-4,5-dihydro-1,3,4-oxadiazol-2-yl)propyl)benzamide] | 7.49 | 5.8 | 115
3 | Cc1nnc(-c2cncc(CN(C)C(=O)c3ccc(C[C@@H]4CC[C@H]([C@H](O)c5ccc(Cl)nc5)N4)cc3)c2)o1 [Example 36-A, 4-(((2S,5R)-5-((R)-(6-chloropyridin-3-yl)(hydroxy)methyl)pyrrolidin-2-yl)methyl)-N-methyl-N-((5-(5-methyl-1,3,4-oxadiazol-2-yl)pyridin-3-yl)methyl)benzamide] | 7.85 |  | 92
4 | COC(C)CN(C)C(=O)c1ccc(C[C@@H]2CC[C@H]([C@H](O)c3ccccc3)N2)cc1 (mixture of isomers) [Example 2-B, 4-(((2S,5R)-5-((R)-hydroxy(phenyl)methyl)pyrrolidin-2-yl)methyl)-N-(2-methoxypropyl)-N-methylbenzamide] | 6.77 | 1.4 | 94
5 | CC(=O)c1ccc([C@@H](O)[C@H]2CC[C@@H](Cc3ccc(C(=O)N(C)Cc4cccnc4)cc3)N2)cn1 [Example 21-J, 4-(((2S,5R)-5-((R)-(6-acetylpyridin-3-yl)(hydroxy)methyl)pyrrolidin-2-yl)methyl)-N-methyl-N-(pyridin-3-ylmethyl)benzamide] | ≤ 5.00 | >2300 | 38
6 | Cc1nc(-c2ccc([C@@H](O)[C@H]3CC[C@@H](Cc4ccc(C(=O)N(C)Cc5cccnc5)cc4)N3)cn2)no1 [Example 21-L, 4-(((2S,5R)-5-((R)-hydroxy(6-(5-methyl-1,2,4-oxadiazol-3-yl)pyridin-3-yl)methyl)pyrrolidin-2-yl)methyl)-N-methyl-N-(pyridin-3-ylmethyl)benzamide] | ≤ 5.00 | >2300 | 3
7 | CN(Cc1cccnc1)C(=O)c1ccc(C[C@@H]2CC[C@H]([C@H](O)c3cncc(F)c3)N2)cc1 [Example 21-R, 4-(((2S,5R)-5-((R)-(5-fluoropyridin-3-yl)(hydroxy)methyl)pyrrolidin-2-yl)methyl)-N-methyl-N-(pyridin-3-ylmethyl)benzamide] | 7.24 | 13.3 | 91
8 | CN(Cc1cccnc1)C(=O)c1ccc(C[C@@H]2CC[C@H]([C@H](O)c3ccccc3)N2)cc1 [Example 21-B, 4-(((2S,5R)-5-((R)-hydroxy(phenyl)methyl)pyrrolidin-2-yl)methyl)-N-methyl-N-(pyridin-3-ylmethyl)benzamide] | 7.39 | 9.7 | 86

Next, values leading:

Row | pEC50 | Fold drop in potency vs. 2-chloropyridine analog [fold] | Human β3-AR Agonist Activity (%) | SMILES
9 | 6.09 | 4.7 | 78 | CN(Cc1ccc(=O)[nH]c1)C(=O)c1ccc(C[C@@H]2CC[C@H]([C@H](O)c3cccc(F)c3)N2)cc1 [Example 28-C, 4-(((2S,5R)-5-((R)-(3-fluorophenyl)(hydroxy)methyl)pyrrolidin-2-yl)methyl)-N-methyl-N-((6-oxo-1,6-dihydropyridin-3-yl)methyl)benzamide]
10 | 6.43 | 32.0 | 87 | CN(Cc1cnccn1)C(=O)c1ccc(C[C@@H]2CC[C@H]([C@H](O)c3cncc(F)c3)N2)cc1 [Example 40-R, 4-(((2S,5R)-5-((R)-(5-fluoropyridin-3-yl)(hydroxy)methyl)pyrrolidin-2-yl)methyl)-N-methyl-N-(pyrazin-2-ylmethyl)benzamide]
11 | 7.66 | 1.8 | 109 | CN(Cc1cncc(C(C)(C)O)c1)C(=O)c1ccc(C[C@@H]2CC[C@H]([C@H](O)c3ccccc3)N2)cc1 [Example 32-B, 4-(((2S,5R)-5-((R)-hydroxy(phenyl)methyl)pyrrolidin-2-yl)methyl)-N-((5-(2-hydroxypropan-2-yl)pyridin-3-yl)methyl)-N-methylbenzamide]
12 | 7.70 | 4.7 | 97 | CN(Cc1cccnc1)C(=O)c1ccc(C[C@@H]2CC[C@H]([C@H](O)c3ccc(N)nc3)N2)cc1 [Example 21-M, 4-(((2S,5R)-5-((R)-(6-aminopyridin-3-yl)(hydroxy)methyl)pyrrolidin-2-yl)methyl)-N-methyl-N-(pyridin-3-ylmethyl)benzamide]
13 | 7.74 | 1.5 | 120 | CCc1[nH]nc(CN(C)C(=O)c2ccc(C[C@@H]3CC[C@H]([C@H](O)c4ccccc4)N3)cc2)c1C [Example 12-B, N-((5-ethyl-4-methyl-1H-pyrazol-3-yl)methyl)-4-(((2S,5R)-5-((R)-hydroxy (phenyl)methyl)pyrrolidin-2-yl)methyl)-N-methylbenzamide]
14 | 9.00 |  | 96 | Cc1cc(CN(C)C(=O)c2ccc(C[C@@H]3CC[C@H]([C@H](O)c4ccc(Cl)nc4)N3)cc2)cnc1F [Example 39-A, 4-(((2S,5R)-5-((R)-(6-chloropyridin-3-yl)(hydroxy)methyl)pyrrolidin-2-yl)methyl)-N-((6-fluoro-5-methylpyridin-3-yl)methyl)-N-methylbenzamide]
15 | 8.15 |  | 95 | CCOc1cc(CN(C)C(=O)c2ccc(C[C@@H]3CC[C@H]([C@H](O)c4ccc(Cl)nc4)N3)cc2)[nH]n1 [Example 11-A, 4-(((2S,5R)-5-((R)-(6-chloropyridin-3-yl)(hydroxy)methyl)pyrrolidin-2-yl)methyl)-N-((5-ethoxy-1H-pyrazol-3-yl)methyl)-N-methylbenzamide]
16 | 7.72 | 4.4 | 71 | CN(Cc1cccnc1)C(=O)c1ccc(C[C@@H]2CC[C@H]([C@H](O)c3ccc(C4CC4)nc3)N2)cc1 [Example 21-I, 4-(((2S,5R)-5-((R)-(6-cyclopropylpyridin-3-yl)(hydroxy)methyl)pyrrolidin-2-yl)methyl)-N-methyl-N-(pyridin-3-ylmethyl)benzamide]
17 | 7.05 | 16.4 | 79 | Cc1cc(CN(C)C(=O)c2ccc(C[C@@H]3CC[C@H]([C@H](O)c4ccc(OC(F)F)cc4)N3)cc2)n[nH]1 [Example 4-E, 4-(((2S,5R)-5-((R)-(4-(difluoromethoxy)phenyl)(hydroxy)methyl)pyrrolidin-2-yl)methyl)-N-methyl-N-((5-methyl-1H-pyrazol-3-yl)methyl)benzamide]
